Data as given in patent publication US20250109112A1, “HERBICIDAL COMPOUNDS” (SYNGENTA CROP PROTECTION AG, priority 2022, published 2025).

What was measured:
Assay type in all cases: in vivo
Settings in all cases: 250 g/ha, evaluated after 13 days
[1] = tested on: Echinochloa crus-galli (ECHCG); assay: Pre-emergence biological efficacy, ECHCG
Protocol: (§1) Seeds of weeds and/or crops were sown in standard soil in pots (Amaranthus palmeri (AMAPA), Lolium perenne (LOLPE), Euphorbia heterophylla (EPHHL), Ipomoea hederacea (IPOHE), Setaria faberi (SETFA), Echinochloa crus-galli (ECHCG)). After cultivation for one day under controlled conditions in a glasshouse (at 24/19° C., day/night; 16 hours light), the plants were sprayed with an aqueous spray solution derived from the formulation of the technical active ingredient in a small amount of acetone and a special solvent and emulsifier mixture referred to as IF50 (11.12% Emulsogen EL360 TM+44.44% N-methylpyrrolidone+44.44% Dowanol DPM glycol ether), to create a 50 g/l solution which was then diluted using 0.2% Genapol XO80 as diluent to give the desired final dose of test compound.
(§2) The test plants were then grown under controlled conditions in the glasshouse (at 24/18° C., day/night; 15 hours light; 50% humidity) and watered twice daily. After 13 days the test was evaluated (100=total damage to plant; 0=no damage to plant).

[2] = tested on: Digitaria sanguinalis (DIGSA); assay: Post-emergence biological efficacy, DIGSA
Protocol: as §1, with “Chenopodium album (CHEAL),” for “Lolium perenne (LOLPE),”, “(IPOHE), Eleusine indica (ELEIN), Lolium perenne (LOLPE), Digitaria sanguinalis (DIGSA),” for “(IPOHE),”, “14 days” for “one day”
as §2

[3] = tested on: Echinochloa crus-galli (ECHCG); assay: Post-emergence biological efficacy, ECHCG
Protocol: as §1, with “Chenopodium album (CHEAL),” for “Lolium perenne (LOLPE),”, “(IPOHE), Eleusine indica (ELEIN), Lolium perenne (LOLPE), Digitaria sanguinalis (DIGSA),” for “(IPOHE),”, “14 days” for “one day”
as §2

Setaria faberi (SETFA) [4] = assay: Pre-emergence biological efficacy, SETFA
Protocol: as §1, §2

[5] = tested on: Chenopodium album (CHEAL); assay: Post-emergence biological efficacy, CHEAL
Protocol: as §1, with “Chenopodium album (CHEAL),” for “Lolium perenne (LOLPE),”, “(IPOHE), Eleusine indica (ELEIN), Lolium perenne (LOLPE), Digitaria sanguinalis (DIGSA),” for “(IPOHE),”, “14 days” for “one day”
as §2

[6] = tested on: Ipomoea hederacea (IPOHE); assay: Post-emergence biological efficacy, IPOHE
Protocol: as §1, with “Chenopodium album (CHEAL),” for “Lolium perenne (LOLPE),”, “(IPOHE), Eleusine indica (ELEIN), Lolium perenne (LOLPE), Digitaria sanguinalis (DIGSA),” for “(IPOHE),”, “14 days” for “one day”
as §2

[7] = tested on: Euphorbia heterophylla (EPHHL); assay: Post-emergence biological efficacy, EPHHL
Protocol: as §1, with “Chenopodium album (CHEAL),” for “Lolium perenne (LOLPE),”, “(IPOHE), Eleusine indica (ELEIN), Lolium perenne (LOLPE), Digitaria sanguinalis (DIGSA),” for “(IPOHE),”, “14 days” for “one day”
as §2

[8] = tested on: Amaranthus palmeri (AMAPA); assay: Post-emergence biological efficacy, AMAPA
Protocol: as §1, with “Chenopodium album (CHEAL),” for “Lolium perenne (LOLPE),”, “(IPOHE), Eleusine indica (ELEIN), Lolium perenne (LOLPE), Digitaria sanguinalis (DIGSA),” for “(IPOHE),”, “14 days” for “one day”
as §2

[9] = tested on: Euphorbia heterophylla (EPHHL); assay: Pre-emergence biological efficacy, EPHHL
Protocol: as §1, §2

Eleusine indica (ELEIN) = assay: Post-emergence biological efficacy, ELEIN
Protocol: as §1, with “Chenopodium album (CHEAL),” for “Lolium perenne (LOLPE),”, “(IPOHE), Eleusine indica (ELEIN), Lolium perenne (LOLPE), Digitaria sanguinalis (DIGSA),” for “(IPOHE),”, “14 days” for “one day”
as §2

[10] = tested on: Ipomoea hederacea (IPOHE); assay: Pre-emergence biological efficacy, IPOHE
Protocol: as §1, §2

Lolium perenne (LOLPE) [11] = assay: Pre-emergence biological efficacy, LOLPE
Protocol: as §1, §2

[12] = tested on: Amaranthus palmeri (AMAPA); assay: Pre-emergence biological efficacy, AMAPA
Protocol: as §1, §2

Lolium perenne (LOLPE) [13] = assay: Post-emergence biological efficacy, LOLPE
Protocol: as §1, with “Chenopodium album (CHEAL),” for “Lolium perenne (LOLPE),”, “(IPOHE), Eleusine indica (ELEIN), Lolium perenne (LOLPE), Digitaria sanguinalis (DIGSA),” for “(IPOHE),”, “14 days” for “one day”
as §2

Setaria faberi (SETFA) [14] = assay: Post-emergence biological efficacy, SETFA
Protocol: as §1, with “Chenopodium album (CHEAL),” for “Lolium perenne (LOLPE),”, “(IPOHE), Eleusine indica (ELEIN), Lolium perenne (LOLPE), Digitaria sanguinalis (DIGSA),” for “(IPOHE),”, “14 days” for “one day”
as §2

COC(=O)CCOC(=O)C(C)Sc1cc(-n2c(=O)n(C)c(=S)n(C)c2=O)c(F)cc1Cl (stereo not drawn) [Compound 9-245, (3-methoxy-3-oxo-propyl) 2-[2-chloro-5-(3,5-dimethyl-2,6-dioxo-4-thioxo-1,3,5-triazinan-1-yl)-4-fluoro-phenyl]sulfanylpropanoate]
damage to plant (100=total damage; 0=no damage), ECHCG [1]: 80 | damage to plant (100=total damage; 0=no damage), DIGSA [2]: 30 | damage to plant (100=total damage; 0=no damage), ECHCG [3]: 70 | damage to plant (100=total damage; 0=no damage), SETFA (Setaria faberi (SETFA) [4]): 100 | damage to plant (100=total damage; 0=no damage), CHEAL [5]: 100 | damage to plant (100=total damage; 0=no damage), IPOHE [6]: 100 | damage to plant (100=total damage; 0=no damage), EPHHL [7]: 90 | damage to plant (100=total damage; 0=no damage), AMAPA [8]: 100 | damage to plant (100=total damage; 0=no damage), EPHHL [9]: 100 | damage to plant (100=total damage; 0=no damage), ELEIN (Eleusine indica (ELEIN)): 80 | damage to plant (100=total damage; 0=no damage), IPOHE [10]: 90 | damage to plant (100=total damage; 0=no damage), LOLPE (Lolium perenne (LOLPE) [11]): 80 | damage to plant (100=total damage; 0=no damage), AMAPA [12]: 100 | damage to plant (100=total damage; 0=no damage), LOLPE (Lolium perenne (LOLPE) [13]): 100 | damage to plant (100=total damage; 0=no damage), SETFA (Setaria faberi (SETFA) [14]): 40

COC(=O)CCNC(=O)C(C)Sc1cc(-n2c(=O)n(C)c(=S)n(C)c2=O)c(F)cc1Cl (stereo not drawn) [Compound 9-272, methyl 3-[2-[2-chloro-5-(3,5-dimethyl-2,6-dioxo-4-thioxo-1,3,5-triazinan-1-yl)-4-fluoro-phenyl]sulfanylpropanoylamino]propanoate]
damage to plant (100=total damage; 0=no damage), ECHCG [1]: 80 | damage to plant (100=total damage; 0=no damage), DIGSA [2]: 70 | damage to plant (100=total damage; 0=no damage), ECHCG [3]: 40 | damage to plant (100=total damage; 0=no damage), SETFA (Setaria faberi (SETFA) [4]): 100 | damage to plant (100=total damage; 0=no damage), CHEAL [5]: 90 | damage to plant (100=total damage; 0=no damage), IPOHE [6]: 100 | damage to plant (100=total damage; 0=no damage), EPHHL [7]: 90 | damage to plant (100=total damage; 0=no damage), AMAPA [8]: 80 | damage to plant (100=total damage; 0=no damage), EPHHL [9]: 100 | damage to plant (100=total damage; 0=no damage), ELEIN (Eleusine indica (ELEIN)): 80 | damage to plant (100=total damage; 0=no damage), IPOHE [10]: 100 | damage to plant (100=total damage; 0=no damage), LOLPE (Lolium perenne (LOLPE) [11]): 90 | damage to plant (100=total damage; 0=no damage), AMAPA [12]: 100 | damage to plant (100=total damage; 0=no damage), LOLPE (Lolium perenne (LOLPE) [13]): 100 | damage to plant (100=total damage; 0=no damage), SETFA (Setaria faberi (SETFA) [14]): 90
